Converted amounts (≈) assume the structure as drawn.
Tests used:
ATCC 12228 = test: minimal inhibitory concentration, two-fold agar dilution; type: cell-based; conditions: Staphylococcus faecalis, ATCC12228, 20 h
Description: (§1) These NIC values were taken by employing a two-fold dilution method: that is, two-fold serial dilutions of each of the test compounds were made and dispersed in a Muller-Hinton agar medium; 2 μl of the standard test strain which had the 10^7 CFU (Colony Forming Unit) per ml was inoculated on the medium; and these were incubated at 37° C. for 20 hours.

[1] = test system: Acinetobacter calcoaceticus ATCC 15473; test: as above; type: cell-based; conditions: ATCC15473, Muller-Hinton agar, 37° C., 20 hours
Description: as §1

[2] = test system: Bacillus cereus ATCC 11778; test: as above; type: cell-based; conditions: Bacillus cereus, ATCC11778, 20 h
Description: as §1

[3] = test system: Bacillus megaterium ATCC 9885; test: as above; type: cell-based; conditions: Priestia megaterium, ATCC9885, 20 h
Description: as §1

[4] = test system: Citrobacter freundii ATCC 8090; test: as above; type: cell-based; conditions: ATCC8090, Muller-Hinton agar, 37° C., 20 hours
Description: as §1

[5] = test system: Enterobacter aerogenes ATCC 29751; test: as above; type: cell-based; conditions: Klebsiella aerogenes, ATCC29751, 20 h
Description: as §1

[6] = test system: Enterobacter cloacae ATCC 27508; test: as above; type: cell-based; conditions: ATCC27508, Muller-Hinton agar, 37° C., 20 hours
Description: as §1

[7] = test system: Escherichia coli ATCC 10536; test: as above; type: cell-based; conditions: ATCC10536, Muller-Hinton agar, 37° C., 20 hours
Description: as §1

[8] = test system: Escherichia coli ATCC 25922; test: as above; type: cell-based; conditions: ATCC25922, Muller-Hinton agar, 37° C., 20 hours
Description: as §1

[9] = test system: Klebsiella pneumoniae ATCC 10031; test: as above; type: cell-based; conditions: ATCC10031, Muller-Hinton agar, 37° C., 20 hours
Description: as §1

[10] = test system: Micrococcus luteus ATCC 9341; test: as above; type: cell-based; conditions: ATCC9341, Muller-Hinton agar, 37° C., 20 hours
Description: as §1

[11] = test system: Morganella morganii ATCC 8076h; test: as above; type: cell-based; conditions: ATCC8076H, 20 h
Description: as §1

[12] = test system: Proteus mirabilis ATCC 25933; test: as above; type: cell-based; conditions: ATCC25933, Muller-Hinton agar, 37° C., 20 hours
Description: as §1

[13] = test system: Proteus vulgaris ATCC 6059; test: as above; type: cell-based; conditions: ATCC6059, Muller-Hinton agar, 37° C., 20 hours
Description: as §1

[14] = test system: Providencia rettgeri ATCC 9250; test: as above; type: cell-based; conditions: ATCC9250, Muller-Hinton agar, 37° C., 20 hours
Description: as §1

[15] = test system: Pseudomonas aeruginosa ATCC 25619; test: as above; type: cell-based; conditions: ATCC25619, Muller-Hinton agar, 37° C., 20 hours
Description: as §1

[16] = test system: Pseudomonas aerugionsa ATCC 10145; test: as above; type: cell-based; conditions: ATCC10145, Muller-Hinton agar, 37° C., 20 hours
Description: as §1

[17] = test system: Pseudomonas aerugionsa ATCC 27853; test: as above; type: cell-based; conditions: ATCC27853, Muller-Hinton agar, 37° C., 20 hours
Description: as §1

[18] = test system: Salmonella typhimurium ATCC 14028; test: as above; type: cell-based; conditions: Salmonella enterica, Muller-Hinton agar, 37° C., 20 hours
Description: as §1

[19] = test system: Serratia marcescens ATCC 27117; test: as above; type: cell-based; conditions: ATCC27117, Muller-Hinton agar, 37° C., 20 hours
Description: as §1

[20] = test system: Shigella flexneri ATCC 11836; test: as above; type: cell-based; conditions: ATCC11836, Muller-Hinton agar, 37° C., 20 hours
Description: as §1

[21] = test system: Shigella sonnei ATCC 11060; test: as above; type: cell-based; conditions: ATCC11060, Muller-Hinton agar, 37° C., 20 hours
Description: as §1

[22] = test system: Staphylococcus aureus ATCC 6638p; test: as above; type: cell-based; conditions: ATCC6638P, 20 h
Description: as §1

[23] = test system: Staphylococcus epidermidis ATCC 10537; test: as above; type: cell-based; conditions: ATCC10537, Muller-Hinton agar, 37° C., 20 hours
Description: as §1

[24] = test system: Streptococcus faecalis ATCC 29212; test: as above; type: cell-based; conditions: Enterococcus faecalis, ATCC29212, Muller-Hinton agar, 37° C., 20 hours
Description: as §1

[25] = acute toxicity test, intravenous; conditions: mouse, in vivo, ICR mice, observed for 14 days
Description: The results are shown in the last row of Table 2.

Compound	MIC (ATCC 12228) [µg/mL]	MIC [1] [µg/mL]	MIC [2] [µg/mL]	MIC [3] [µg/mL]	MIC [4] [µg/mL]	MIC [5] [µg/mL]	MIC [6] [µg/mL]	MIC [7] [µg/mL]	MIC [8] [µg/mL]	MIC [9] [µg/mL]	MIC [10] [µg/mL]	MIC [11] [ng/mL]	MIC [12] [µg/mL]	MIC [13] [µg/mL]	MIC [14] [ng/mL]	MIC [15] [µg/mL]	MIC [16] [µg/mL]	MIC [17] [µg/mL]	MIC [18] [µg/mL]	MIC [19] [µg/mL]	other results
CCC[n+]1c(N)cc(N)nc1SCC1=C(C(=O)[O-])N2C(=O)C(NC(=O)/C(=N\O[C@@H](C)C(=O)O)c3csc(N)n3)[C@H]2SC1 (stereo partly drawn) [I-S-4, 7-[(Z)-2-(2-aminothiazol-4-yl)-2-[(S)-1-carboxyeth-1-oxyimino]acetamido]-3-[(4,6-diamino-1-propylpyrimidinium-2-yl)thiomethyl]-3-cephem-4-carboxylate]	1 (≈ 1.57 µM)	4 (≈ 6.27 µM)	32 (≈ 50.2 µM)	0.5 (≈ 0.784 µM)	0.031 (≈ 0.0486 µM)	1 (≈ 1.57 µM)	≤ 0.008	0.031 (≈ 0.0486 µM)	0.031 (≈ 0.0486 µM)	0.031 (≈ 0.0486 µM)	0.13 (≈ 0.204 µM)	≤ 8	0.031 (≈ 0.0486 µM)	0.031 (≈ 0.0486 µM)	≤ 8	1 (≈ 1.57 µM)	2 (≈ 3.14 µM)	1 (≈ 1.57 µM)	0.13 (≈ 0.204 µM)	0.13 (≈ 0.204 µM)	MIC [20]: 0.031 µg/mL (≈ 0.0486 µM); MIC [21]: 0.063 µg/mL (≈ 0.0988 µM); MIC [22]: 2 µg/mL (≈ 3.14 µM); MIC [23]: 1 µg/mL (≈ 1.57 µM); MIC [24]: > 128 µg/mL; LD50 at 336 h [25]: > 3000 mg/kg
C[C@H](O/N=C(\C(=O)NC1C(=O)N2C(C(=O)[O-])=C(CSc3nc(N)cc(N)[n+]3-c3ccccc3)CS[C@H]12)c1csc(N)n1)C(=O)O (stereo partly drawn) [I-S-5, 7-[(Z)-2-(2-aminothiazol-4-yl)-2-[(S)-1-carboxyeth-1-oxyimino]acetamido]-3-[(4,6-diamino-1-phenylpyrimidinium-2-yl)thiomethyl]-3-cephem-4-carboxylate]	2 (≈ 2.98 µM)	16 (≈ 23.8 µM)	32 (≈ 47.6 µM)	0.25 (≈ 0.372 µM)	0.13 (≈ 0.194 µM)	2 (≈ 2.98 µM)	0.031 (≈ 0.0461 µM)	0.25 (≈ 0.372 µM)	0.25 (≈ 0.372 µM)	0.13 (≈ 0.194 µM)	0.25 (≈ 0.372 µM)	≤ 8	0.13 (≈ 0.194 µM)	0.063 (≈ 0.0938 µM)	≤ 8	2 (≈ 2.98 µM)	8 (≈ 11.9 µM)	4 (≈ 5.95 µM)	0.5 (≈ 0.744 µM)	0.5 (≈ 0.744 µM)	MIC [20]: 0.13 µg/mL (≈ 0.194 µM); MIC [21]: 0.25 µg/mL (≈ 0.372 µM); MIC [22]: 4 µg/mL (≈ 5.95 µM); MIC [23]: 4 µg/mL (≈ 5.95 µM); MIC [24]: > 128 µg/mL; LD50 at 336 h [25]: > 2000 mg/kg
Cc1c(N)nc(SCC2=C(C(=O)[O-])N3C(=O)C(NC(=O)/C(=N\O[C@@H](C)C(=O)O)c4csc(N)n4)C3SC2)[n+](C)c1N (stereo partly drawn) [I-S-6, 7-[(Z)-2-(2-aminothiazol-4-yl)-2-[(S)-1-carboxyeth-1-oxyimino]acetamido]-3-[(4,6-diamino-1,5-dimethylpyrimidinium-2-yl)thiomethyl]-3-cephem-4-carboxylate]	1 (≈ 1.6 µM)	4 (≈ 6.41 µM)	64 (≈ 103 µM)	0.25 (≈ 0.401 µM)	0.016 (≈ 0.0257 µM)	0.5 (≈ 0.802 µM)	≤ 0.008	0.031 (≈ 0.0497 µM)	0.031 (≈ 0.0497 µM)	0.031 (≈ 0.0497 µM)	0.25 (≈ 0.401 µM)	≤ 8	0.031 (≈ 0.0497 µM)	0.031 (≈ 0.0497 µM)	≤ 8	1 (≈ 1.6 µM)	2 (≈ 3.21 µM)	1 (≈ 1.6 µM)	0.13 (≈ 0.208 µM)	0.13 (≈ 0.208 µM)	MIC [20]: 0.016 µg/mL (≈ 0.0257 µM); MIC [21]: 0.031 µg/mL (≈ 0.0497 µM); MIC [22]: 4 µg/mL (≈ 6.41 µM); MIC [23]: 2 µg/mL (≈ 3.21 µM); MIC [24]: > 128 µg/mL; LD50 at 336 h [25]: > 3000 mg/kg
